Measured values from patent publication US9708314B2, “Heterocyclic amide compound” (NISSAN CHEMICAL INDUSTRIES, LTD., priority 2013, dated 2017).

Key:
Assay type in all cases: in vivo
Scirpus juncoides = assay: Test Example 1: herbicidal activity, application before weed generation in submerged conditions; conditions: Application herbicide amount 320 g/ha; Seventeenth Table
Procedure, shortened: (§1)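 Alluvial soil in Wagner pots flooded to 4 cm water depth; weed seeds sown and 2.5 leaf stage rice seedlings transplanted. Emulsion diluted in water applied to water surface on sowing day at stated g/ha. Greenhouse 25° C. to 30° C.; effects scored 0–5 by herbicidal ratio after three weeks.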

[1] = test system: Echinochloa oryzacola Vasing.; assay: as above; conditions: Application herbicide amount 320 g/ha; Seventeenth Table
Procedure, shortened: as §1

Monochoria vaginalis = assay: as above; conditions: Application herbicide amount 320 g/ha; Seventeenth Table
Procedure, shortened: as §1

Chenopodium album = assay: Test Example 4: herbicidal effect by application to foliage (diluvial soil, plastic box); conditions: 320 g/ha; for O (Chenopodium album) herbicidal effect grade: foliage application
Procedure, shortened: (§2)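 Scores run from 0 (herbicidal ratio ≤5%) to 5 (≥90%, almost fully withered) and were assessed three weeks after foliar spraying. Seedlings had been raised for 14 days at 25-30° C in sterilized diluvial soil before treatment, with the emulsion diluted in water to the stated g/ha dose.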

Veronica persica = assay: as above; conditions: 320 g/ha; for R (Veronica persica) herbicidal effect grade: foliage application
Procedure, shortened: as §2

Setaria viridis = assay: as above; conditions: 320 g/ha; for G (Setaria viridis) herbicidal effect grade: foliage application
Procedure, shortened: as §2

Alopecurus myosuroides = assay: as above; conditions: 320 g/ha; for J (Alopecurus myosuroides) herbicidal effect grade: foliage application
Procedure, shortened: as §2

Stellaria media = assay: as above; conditions: 320 g/ha; for P (Stellaria media) herbicidal effect grade: foliage application
Procedure, shortened: as §2

Amaranthus retroflexus = assay: as above; conditions: 320 g/ha; for N (Amaranthus retroflexus) herbicidal effect grade: foliage application
Procedure, shortened: as §2

Abutilon theophrasti = assay: as above; conditions: 320 g/ha; for M (Abutilon theophrasti) herbicidal effect grade: foliage application
Procedure, shortened: as §2

Apera spica-venti. = assay: as above; conditions: 320 g/ha; for L (Apera spica-venti.) herbicidal effect grade: foliage application
Procedure, shortened: as §2

Avena fatua = assay: as above; conditions: 320 g/ha; for I (Avena fatua) herbicidal effect grade: foliage application
Procedure, shortened: as §2

Digitaria ciliaris = assay: as above; conditions: 320 g/ha; for F (Digitaria ciliaris) herbicidal effect grade: foliage application
Procedure, shortened: as §2

Lolium multiflorum Lam. = assay: as above; conditions: 320 g/ha; for K (Lolium multiflorum Lam.) herbicidal effect grade: foliage application
Procedure, shortened: as §2

[2] = test system: Echinochloa crus-galli var. crus-galli; assay: as above; conditions: 320 g/ha; for H (Echinochloa crus-galli var. crus-galli) herbicidal effect grade: foliage application
Procedure, shortened: as §2

Galium spurium = assay: as above; conditions: 320 g/ha; for Q (Galium spurium) herbicidal effect grade: foliage application
Procedure, shortened: as §2

Glycine max = assay: Test Example 4: effect on crop by application to foliage (diluvial soil, plastic box); conditions: 320 g/ha; for c (Glycine max) effect on crop grade: foliage application
Procedure, shortened: as §2

Brassica campestris L. = assay: as above; conditions: 320 g/ha; for g (Brassica campestris L.) effect on crop grade: foliage application
Procedure, shortened: as §2

[3] = test system: Beta vulgaris ssp. vulgaris; assay: as above; conditions: 320 g/ha; for f (Beta vulgaris ssp. vulgaris) effect on crop grade: foliage application
Procedure, shortened: as §2

Triticum aestivum = assay: as above; conditions: 320 g/ha; for e (Triticum aestivum) effect on crop grade: foliage application
Procedure, shortened: as §2

Zea mays = assay: as above; conditions: 320 g/ha; for b (Zea mays) effect on crop grade: foliage application
Procedure, shortened: as §2

[4] = test system: directly sowed Oryza sativa; assay: as above; conditions: 320 g/ha; for d (directly sowed Oryza sativa) effect on crop grade: foliage application
Procedure, shortened: as §2

| SMILES | B: Scirpus juncoides (herbicidal effect grade) (Scirpus juncoides) | A: Echinochloa oryzicola Vasing. (herbicidal effect grade) [1] | C: Monochoria vaginalis (herbicidal effect grade) (Monochoria vaginalis) | O (Chenopodium album) herbicidal effect grade (Chenopodium album) | R (Veronica persica) herbicidal effect grade (Veronica persica) | G (Setaria viridis) herbicidal effect grade (Setaria viridis) | J (Alopecurus myosuroides) herbicidal effect grade (Alopecurus myosuroides) | P (Stellaria media) herbicidal effect grade (Stellaria media) | N (Amaranthus retroflexus) herbicidal effect grade (Amaranthus retroflexus) | M (Abutilon theophrasti) herbicidal effect grade (Abutilon theophrasti) | L (Apera spica-venti.) herbicidal effect grade (Apera spica-venti.) | I (Avena fatua) herbicidal effect grade (Avena fatua) | F (Digitaria ciliaris) herbicidal effect grade (Digitaria ciliaris) | K (Lolium multiflorum Lam.) herbicidal effect grade (Lolium multiflorum Lam.) | H (Echinochloa crus-galli var. crus-galli) herbicidal effect grade [2] | Q (Galium spurium) herbicidal effect grade (Galium spurium) | c (Glycine max) effect on crop grade (Glycine max) | g (Brassica campestris L.) effect on crop grade (Brassica campestris L.) | f (Beta vulgaris ssp. vulgaris) effect on crop grade [3] | e (Triticum aestivum) effect on crop grade (Triticum aestivum) | other results |
| --- | --- | --- | --- | --- | --- | --- | --- | --- | --- | --- | --- | --- | --- | --- | --- | --- | --- | --- | --- | --- | --- |
| Cn1nnnc1NC(=O)c1ccc(C(F)(F)F)n2c(N3CCOCC3)nnc12 [2-075] | 5 (Herbicidal ratio of 90% or more (almost completely withered)) | 5 (Herbicidal ratio of 90% or more (almost completely withered)) | 5 (Herbicidal ratio of 90% or more (almost completely withered)) | – | – | – | – | – | – | – | – | – | – | – | – | – | – | – | – | – | herbicidal effect, O (Chenopodium album) (Chenopodium album; application to foliage): 5 (Herbicidal ratio of 90% or more (almost completely withered)); herbicidal effect, R (Veronica persica) (Veronica persica; application to foliage): 5 (Herbicidal ratio of 90% or more (almost completely withered)); herbicidal effect, G (Setaria viridis) (Setaria viridis; application to foliage): 5 (Herbicidal ratio of 90% or more (almost completely withered)); herbicidal effect, J (Alopecurus myosuroides) (Alopecurus myosuroides; application to foliage): 4 (Herbicidal ratio of 70% or more and less than 90%); herbicidal effect, P (Stellaria media) (Stellaria media; application to foliage): 5 (Herbicidal ratio of 90% or more (almost completely withered)); herbicidal effect, N (Amaranthus retroflexus) (Amaranthus retroflexus; application to foliage): 5 (Herbicidal ratio of 90% or more (almost completely withered)); herbicidal effect, M (Abutilon theophrasti) (Abutilon theophrasti; application to foliage): 5 (Herbicidal ratio of 90% or more (almost completely withered)); herbicidal effect, L (Apera spica-venti.) (Apera spica-venti.; application to foliage): 4 (Herbicidal ratio of 70% or more and less than 90%); herbicidal effect, I (Avena fatua) (Avena fatua; application to foliage): 5 (Herbicidal ratio of 90% or more (almost completely withered)); herbicidal effect, F (Digitaria ciliaris) (Digitaria ciliaris; application to foliage): 5 (Herbicidal ratio of 90% or more (almost completely withered)); herbicidal effect, K (Lolium multiflorum Lam.) (Lolium multiflorum Lam.; application to foliage): 4 (Herbicidal ratio of 70% or more and less than 90%); herbicidal effect, H (Echinochloa crus-galli var. crus-galli) ([2]; application to foliage): 5 (Herbicidal ratio of 90% or more (almost completely withered)); herbicidal effect, Q (Galium spurium) (Galium spurium; application to foliage): 4 (Herbicidal ratio of 70% or more and less than 90%); effect on crop, c (Glycine max) (Glycine max; application to foliage): 3 (Herbicidal ratio of 40% or more and less than 70%); effect on crop, g (Brassica campestris L.) (Brassica campestris L.; application to foliage): 5 (Herbicidal ratio of 90% or more (almost completely withered)); effect on crop, f (Beta vulgaris ssp. vulgaris) ([3]; application to foliage): 5 (Herbicidal ratio of 90% or more (almost completely withered)); effect on crop, e (Triticum aestivum) (Triticum aestivum; application to foliage): 4 (Herbicidal ratio of 70% or more and less than 90%); effect on crop, b (Zea mays) (Zea mays; application to foliage): 5 (Herbicidal ratio of 90% or more (almost completely withered)); effect on crop, d (directly sowed Oryza sativa) ([4]; application to foliage): 5 (Herbicidal ratio of 90% or more (almost completely withered)) |
| CC(C)c1nnc2c(C(=O)Nc3nnnn3-c3ccccc3)ccc(C(F)(F)F)n12 [2-073] | 3 (Herbicidal ratio of 40% or more and less than 70%) | 4 (Herbicidal ratio of 70% or more and less than 90%) | 4 (Herbicidal ratio of 70% or more and less than 90%) | 5 (Herbicidal ratio of 90% or more (almost completely withered)) | 2 (Herbicidal ratio of 20% or more and less than 40%) | 1 (Herbicidal ratio of 5% or more and less than 20%) | 0 (Herbicidal ratio of 5% or less (almost no effect)) | 4 (Herbicidal ratio of 70% or more and less than 90%) | 3 (Herbicidal ratio of 40% or more and less than 70%) | 3 (Herbicidal ratio of 40% or more and less than 70%) | 0 (Herbicidal ratio of 5% or less (almost no effect)) | 1 (Herbicidal ratio of 5% or more and less than 20%) | 1 (Herbicidal ratio of 5% or more and less than 20%) | 1 (Herbicidal ratio of 5% or more and less than 20%) | 4 (Herbicidal ratio of 70% or more and less than 90%) | 0 (Herbicidal ratio of 5% or less (almost no effect)) | 0 (Herbicidal ratio of 5% or less (almost no effect)) | 0 (Herbicidal ratio of 5% or less (almost no effect)) | 3 (Herbicidal ratio of 40% or more and less than 70%) | 0 (Herbicidal ratio of 5% or less (almost no effect)) | b (Zea mays) effect on crop grade (Zea mays): 0 (Herbicidal ratio of 5% or less (almost no effect)); d (directly sowed Oryza sativa) effect on crop grade [4]: 2 (Herbicidal ratio of 20% or more and less than 40%) |
| CCCSc1nnc2c(C(=O)Nc3nnnn3C)ccc(C(F)(F)F)n12 [2-068] | 5 (Herbicidal ratio of 90% or more (almost completely withered)) | 5 (Herbicidal ratio of 90% or more (almost completely withered)) | 4 (Herbicidal ratio of 70% or more and less than 90%) | 5 (Herbicidal ratio of 90% or more (almost completely withered)) | 5 (Herbicidal ratio of 90% or more (almost completely withered)) | 5 (Herbicidal ratio of 90% or more (almost completely withered)) | 2 (Herbicidal ratio of 20% or more and less than 40%) | 5 (Herbicidal ratio of 90% or more (almost completely withered)) | 5 (Herbicidal ratio of 90% or more (almost completely withered)) | 5 (Herbicidal ratio of 90% or more (almost completely withered)) | 3 (Herbicidal ratio of 40% or more and less than 70%) | 3 (Herbicidal ratio of 40% or more and less than 70%) | 5 (Herbicidal ratio of 90% or more (almost completely withered)) | 2 (Herbicidal ratio of 20% or more and less than 40%) | 5 (Herbicidal ratio of 90% or more (almost completely withered)) | 4 (Herbicidal ratio of 70% or more and less than 90%) | 3 (Herbicidal ratio of 40% or more and less than 70%) | 4 (Herbicidal ratio of 70% or more and less than 90%) | 5 (Herbicidal ratio of 90% or more (almost completely withered)) | 2 (Herbicidal ratio of 20% or more and less than 40%) | b (Zea mays) effect on crop grade (Zea mays): 5 (Herbicidal ratio of 90% or more (almost completely withered)); d (directly sowed Oryza sativa) effect on crop grade [4]: 4 (Herbicidal ratio of 70% or more and less than 90%) |
